# Source: paper PMC10095747, “Modulatory Effects of Atractylodin and β-Eudesmol on Human Cytochrome P450 Enzymes: Potential Drug-Drug Interactions” (Molecules, 2023)
# pIC50: −log10 of the molar value. Like-named read-outs stand apart in the source and are kept apart here.
# How the values were obtained:
# mCYP1A2 [1] = assay: ex vivo mCYP1A2 activity in mouse liver microsomes (phenacetin O-deethylation); details: daily oral 100 mg/kg body weight
# Description: Phenacetin and nifedipine are substrates of CYP1A2 and CYP3A11, respectively. Both substrates are converted via the CYP enzyme to paracetamol and dehydronefedipine, respectively. The concentrations of paracetamol and dehydronefedipine were used to determine the activities of mCYP1A2 and mCYP3A11. The effects of atractylodin and β-eudesmol on mCYP1A2 and mCYP3A11 activities were, respectively, determined by measuring paracetamol (mCYP1A2-dependent metabolite) and dehydronifiedipine (mCYP3A11-dependent metabolite) concentrations.
# (§1) Eight-week-old male ICR (Imprinting Control Region) mice weighing 35–40 g were used to investigate the modulatory effects of atractylodin and β-eudesmol on mCYP1A2 and mCYP3A11. The study protocol was approved by the Ethics Committee for Animal Research at Thammasat University (protocol number 016/2020). All animals were obtained from Nomura Siam International Co., Ltd. (Bangkok, Thailand). The animals were acclimatized for one week before the experiments. A total of 36 mice were allocated to three groups (i) control group (3 mice), (ii) atractylodin-treated group, and (iii) β-eudesmol-treated group. For atractylodin and β-eudesmol-treated groups, animals were fed with 100 mg/kg body weight of each compound for 1, 7, 14, and 21 (3 mice for each dose). Experiments were performed under the guidelines for the care and use of laboratory animals in a controlled environment of 12 h dark/light cycle, temperature 22 ± 2 °C, and relative humidity 30–70% at the Thammasat University Animal Center. Animals were observed daily for changes in signs and symptoms by a veterinarian. Mice were allowed access to the food pellets and water ad libitum.
# (§2) Mouse liver samples were cut into small pieces, and the liver microsomes were prepared as described previously. The concentrations of proteins in the microsomes were determined using Pierce™ BCA Protein Assay Kit. mCYP1A2 and mCYP3A11 activities were evaluated based on phenacetin O-deethylation and nifedipine oxidation activities, respectively. The incubation mixture of 500 µL consisted of microsomes, substrate ([…]), and NADPH. […] The final organic solvent concentration in the incubation mixture was not higher than 1%. Each experiment was repeated three times (duplicated each). Determination of the concentrations of metabolites of mCYP1A2 (paracetamol) and mCYP3A11 (dehydronifedipine) in the reaction was performed using HPLC Agilent 1260 Infinity II with mobile gradient phase between methanol and distilled water at an initial ratio of 20:80 (v:v) and UV detection (240 nm). Calibration curves for both CYP450 activities were created over a concentration range of 1–50 µM. Oxidized nifedipine concentrations were determined using HPLC as follows: UV detection at 235 nm with an isocratic mobile phase consisting of methanol and distilled water (70:30, v:v). […] In each analytical batch, quality control (QC) samples were run in duplicate at low, medium, and high concentrations. Acceptance criteria were four out of six QC analyses falling within 100 ± 15% of the nominal values.
# rCYP2C9 = rCYP2C9 (Homo sapiens, UniProt P11712); assay: luminogenic P450-Glo CYP450 inhibition assay, rCYP2C9; details: three independent experiments
# Description: The luminescent cytochrome P450 assay was used to determine CYP450-mediated (CYP1A2, 2C9, 2C19, 2D6, and 3A4) metabolism of atractylodin and β-eudesmol. The assay consisted of each recombinant human CYP450 (rCYP450), control membranes lacking P450 activity, a luminogenic CYP450 substrate (luciferin-ME substrate for rCYP1A2, luciferin-H substrate for rCYP2C9, luciferin-H EGE substrate for rCYP2C19, luciferin-ME EGE substrate for rCYP2D6, and luciferin-IPA substrate for rCYP3A4), KPO4 buffer, luciferin free water, NADPH regeneration system, and a luciferin detection reagent. The rCYP450 enzymes were generated from a baculovirus-infected insect cell expression system. The concentrations of the recombinant CYPs used were 0.5 (rCYP1A2 and rCYP2C9), 0.25 (rCYP2C19 and rCYP2D6) or 0.2 (rCYP3A4) pmol (0.5μL) per reaction. […] A luciferin product was produced after adding 25 µL of NADPH Regeneration System (solution A, solution B, and luciferin-free water) and incubated at 37 °C for 10 (rCYP1A2 and rCYP3A4), 20 (rCYP2C19 and rCYP2C9) or 30 (rCYP2D6) minutes. The reaction was stopped and converted to a luminescent signal after adding Luciferin Detection Reagent (50 µL) and incubated at 25 °C for 20 min. The luminescence signals obtained were determined using a Varioskan® Flash microplate reader (Waltham, MA, USA). The magnitude of luminescence in all of the samples represented CYP450 activity. […] All stock solutions were diluted with luciferin-free water until the final concentration of organic solvent was less than 0.25% (v/v) of the total reaction. The concentration range of atractylodin and β-eudesmol used were 2.74–686 µM and 2.25–562 µM, respectively. […] The concentration that inhibited the activity of each rCYP450 by 50% (IC50) was calculated using Calcusyn software (Cambridge, UK). Data are reported as the median (range) of the three independent experiments.
# mCYP1A2 [2] = assay: ex vivo mCYP1A2 protein expression in mouse liver microsomes (western blot); details: daily oral 100 mg/kg body weight
# Description: as §1, §2
# (§3) The microsomal protein concentration for both mCYP1A2 and […] was 25 μg protein per lane. Proteins were denatured by combining equal volumes of liver microsomes with sample buffer (1:19 (v:v) of 2-mercaptoethanol and 2x Laemmle buffer) and heating at 100 °C for 5 min. Proteins were separated using 12% SDS-PAGE according to their size characteristics before being migrated to nitrocellulose blotting membranes.
# mCYP3A11 = assay: ex vivo mCYP3A11 protein expression in mouse liver microsomes (western blot); details: daily oral 100 mg/kg body weight
# Description: as §1, §2, §3
# Chain of rCYP2C9 (P11712 whole entry): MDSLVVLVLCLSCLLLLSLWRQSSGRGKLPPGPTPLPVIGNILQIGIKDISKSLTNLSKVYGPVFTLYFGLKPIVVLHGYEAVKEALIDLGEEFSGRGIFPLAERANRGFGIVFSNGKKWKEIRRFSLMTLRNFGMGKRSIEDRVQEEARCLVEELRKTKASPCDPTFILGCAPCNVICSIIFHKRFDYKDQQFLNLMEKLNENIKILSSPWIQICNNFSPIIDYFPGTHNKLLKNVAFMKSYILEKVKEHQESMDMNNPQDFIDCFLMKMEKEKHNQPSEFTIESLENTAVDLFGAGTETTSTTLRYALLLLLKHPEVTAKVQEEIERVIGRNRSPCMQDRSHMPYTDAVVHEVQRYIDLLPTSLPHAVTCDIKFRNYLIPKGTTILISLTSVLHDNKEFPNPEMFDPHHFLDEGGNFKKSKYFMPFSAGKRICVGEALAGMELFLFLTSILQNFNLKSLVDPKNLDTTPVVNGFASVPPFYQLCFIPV
smiles,measurement,setting,value
C/C=C/C#CC#C/C=C/c1ccco1 [Atractylodin],Paracetamol concentration (mCYP1A2 activity),"mCYP1A2 [1]; 1 day, control 11.40, 100 mg/kg",significantly increased
same,Paracetamol concentration (mCYP1A2 activity),"mCYP1A2 [1]; 1 day, control 11.40, listed as Atactylodin, 100 mg/kg",15.80 µM
same,Paracetamol concentration (mCYP1A2 activity),"mCYP1A2 [1]; 7 days, control 12.25",12.00 µM
same,Paracetamol concentration (mCYP1A2 activity),"mCYP1A2 [1]; 14 days, control 12.80",14.50 µM
same,Paracetamol concentration (mCYP1A2 activity),"mCYP1A2 [1]; 21 days, control 12.90, 100 mg/kg",significant decrease
same,Paracetamol concentration (mCYP1A2 activity),"mCYP1A2 [1]; 21 days, control 12.90, listed as Atactylodin, 100 mg/kg",10.60 µM
same,Median IC50 (Range) rCYP2C9,rCYP2C9; median (range),>125 µg/mL
same,pIC50,"rCYP2C9; read-out: Median IC50 (Range) rCYP2C9, median (range)",< 3.16
same,Protein expression ratio of mCYP1A2,"mCYP1A2 [2]; 1 day, control 1.5",1.39
same,Protein expression ratio of mCYP1A2,"mCYP1A2 [2]; 7 days, control 1.88",1.55
same,Protein expression ratio of mCYP1A2,"mCYP1A2 [2]; 14 days, control 2.42",1.77
same,Protein expression ratio of mCYP1A2,"mCYP1A2 [2]; 21 days, control 2.20, 100 mg/kg",significantly downregulated
same,Protein expression ratio of mCYP1A2,"mCYP1A2 [2]; 21 days, control 2.20, listed as Atactylodin, 100 mg/kg",1.33
same,Protein expression ratio of mCYP3A11,"mCYP3A11; 1 day, control 1.73",1.82
same,Protein expression ratio of mCYP3A11,"mCYP3A11; 7 days, control 1.57, 100 mg/kg",significantly downregulated
same,Protein expression ratio of mCYP3A11,"mCYP3A11; 7 days, control 1.57, listed as Atactylodin, 100 mg/kg",1.26
same,Protein expression ratio of mCYP3A11,"mCYP3A11; 14 days, control 2.31, 100 mg/kg",significantly downregulated
same,Protein expression ratio of mCYP3A11,"mCYP3A11; 14 days, control 2.31, listed as Atactylodin, 100 mg/kg",1.67
same,Protein expression ratio of mCYP3A11,"mCYP3A11; 21 days, control 2.18, 100 mg/kg",significantly downregulated
same,Protein expression ratio of mCYP3A11,"mCYP3A11; 21 days, control 2.18, listed as Atactylodin, 100 mg/kg",1.41
C=C1CCC[C@]2(C)CC[C@@H](C(C)(C)O)C[C@@H]12 [β-Eudesmol],Paracetamol concentration (mCYP1A2 activity),"mCYP1A2 [1]; 1 day, control 11.40",12.35 µM
same,Paracetamol concentration (mCYP1A2 activity),"mCYP1A2 [1]; 7 days, control 12.25",11.80 µM
same,Paracetamol concentration (mCYP1A2 activity),"mCYP1A2 [1]; 14 days, control 12.80",13.25 µM
same,Paracetamol concentration (mCYP1A2 activity),"mCYP1A2 [1]; 21 days, control 12.90, listed as β-eudesmol, 100 mg/kg",significantly decreased
same,Paracetamol concentration (mCYP1A2 activity),"mCYP1A2 [1]; 21 days, control 12.90, listed as β‐eudesmol, 100 mg/kg",8.30 µM
same,pIC50,"rCYP2C9; Median IC50 (Range) rCYP2C9, median (range)",3.27
same,Protein expression ratio of mCYP1A2,"mCYP1A2 [2]; 1 day, control 1.5",1.06
same,Protein expression ratio of mCYP1A2,"mCYP1A2 [2]; 7 days, control 1.88",1.83
same,Protein expression ratio of mCYP1A2,"mCYP1A2 [2]; 14 days, control 2.42",2.05
same,Protein expression ratio of mCYP1A2,"mCYP1A2 [2]; 21 days, control 2.20, listed as β-eudesmol, 100 mg/kg",significantly downregulated
same,Protein expression ratio of mCYP1A2,"mCYP1A2 [2]; 21 days, control 2.20, listed as β‐eudesmol, 100 mg/kg",1.00
same,Protein expression ratio of mCYP3A11,"mCYP3A11; 1 day, control 1.73",1.50
same,Protein expression ratio of mCYP3A11,"mCYP3A11; 7 days, control 1.57",1.62
same,Protein expression ratio of mCYP3A11,"mCYP3A11; 14 days, control 2.31, listed as β-eudesmol, 100 mg/kg",significantly downregulated
same,Protein expression ratio of mCYP3A11,"mCYP3A11; 14 days, control 2.31, listed as β‐eudesmol, 100 mg/kg",1.60
same,Protein expression ratio of mCYP3A11,"mCYP3A11; 21 days, control 2.18, listed as β-eudesmol, 100 mg/kg",significantly downregulated
same,Protein expression ratio of mCYP3A11,"mCYP3A11; 21 days, control 2.18, listed as β‐eudesmol, 100 mg/kg",1.42
